Source: patent publication US8445409B2, “Use of 5-benzyloxymethyl-1,2-isoxazoline derivatives as a herbicide” (Moghu Research Center Ltd., priority 2007, dated 2013)

Assays:
Soybean = experiment: Upland pot test, pre-/post-emergence spray, visual rating; type: in vivo, soybean (GLYMX); conditions: for Visual measurement: Crops, Soybean: 2 weeks after spray, 0-10 scale (10=completely killed)
Source text: (§1) To a rectangular plastic pot having a surface area of 300 cm^2, mixed soils including blend bed soil (Boonong, Horticultural Bed Soil No. 3) and sandy loam soil were filled (mixing ratio, 1:1). Seeds of the eight different types of weeds including gramineous weed such as barnyardgrass, large crabgrass, green foxtail, fall panicum, and broadleaf weed such as common cocklebur, velvetleaf, Indian joint-vetch, and morningglory were sown. To the other pot containing the same soil mixture, seeds of the five different types of crops including corn, soybean, cotton, wheat and rice were sown. Pots were kept in a greenhouse of which temperature was maintained at 25˜30° C. (day) or 15˜25° C. (night), and regularly watered.
(§2) After fourteen days and when the crops and the weeds reached their three-leaf stage, the other set of a crop pot and a weed pot were prepared by the same method as described above. Then, “test substance” was sprayed thereto. In this case, spray treatment to the plants after they have grown for two weeks corresponded to post-emergence treatment while spray treatment to the seeds right after the sowing corresponded to pre-emergence treatment. Spray was carried out by using a track sprayer (R&D Sprayer, USA) equipped with a Teejet 8002 nozzle (Spraying Systems Co., USA). Spray volume was adjusted to 300 L/ha. The spray solution was prepared by dissolving the “test substance” in acetone and adding the same volume of 0.2% (v/v) Tween 20 aqueous solution. Dosage of the test substance was 500, 250, 125, 62.5 or 31.3 g/ha. Two weeks after the spray of the test substance, efficacy and phytotoxic effect to the crops and the weeds were visually measured based on a 0 to 10 scale (0: no efficacy, 10: completely killed).

Cotton = experiment: as above; type: in vivo, cotton (GOSHI); conditions: for Visual measurement: Crops, Cotton: 2 weeks after spray, 0-10 scale (10=completely killed)
Source text: as §1, §2

Barnyardgrass = experiment: as above; type: in vivo, barnyardgrass (ECHCG); conditions: 2 weeks after spray, 0-10 scale (10=completely killed)
Source text: as §1, §2

Velvetleaf = experiment: as above; type: in vivo, velvetleaf (ABUTH); conditions: 2 weeks after spray, 0-10 scale (10=completely killed)
Source text: as §1, §2

Indian joint-vetch = experiment: as above; type: in vivo, Indian joint-vetch (AESIN); conditions: 2 weeks after spray, 0-10 scale (10=completely killed)
Source text: as §1, §2

Morningglory = experiment: as above; type: in vivo, morningglory (IPOSP); conditions: 2 weeks after spray, 0-10 scale (10=completely killed)
Source text: as §1, §2

Bentgrass = experiment: Turfgrass safety test (sod mat pots), visual phytotoxicity; type: in vivo; conditions: in vivo
Source text: (§3) Commercially available sod mats of zoysiagrass and bentgrass, Kentucky bluegrass, and perennial ryegrass were purchased. After cutting each turf sod mat in a size of 10 cm×20 cm, it was transplanted to a rectangular plastic pot having a surface area of 300 cm^2 wherein mixed soils including blend of a bed soil (Boonong, Horticultural Nursery Soil No. 3) and sandy loam soil were filled (mixing ratio, 1:1). After transplanting, the grass was mowed (0.5˜1.0 cm in height) once a week, and kept for one month in a greenhouse maintained at 25˜30° C. (day) or 15˜25° C. (night), then the test substance of the present invention was applied at dosage of 4, 2, 1 and 0.5 kg/ha. As a reference, Dithiopyr (32% EC, manufactured by Dongbu Hannong Chemical Company, KOREA) was applied at the recommended rate of 0.48 kg/ha, or twice or quadruple amount thereof, i.e., 0.96 and 1.92 kg/ha, respectively. Spray was made by a track sprayer equipped with a Teejet 8002 nozzle. Spray volume was adjusted to 2,000 L/ha, which was a typical value for an Asian (Korea and Japan) golf course. The spray solution was prepared by dissolving the “test substance” in acetone and adding the same volume of 0.2% (v/v) Tween 20 aqueous solution. Two, four or six weeks after the spray of the test substance, phytotoxicity to the turfgrass were visually evaluated based on 0 to 10 scale (0: no phytotoxic effect, 10: completely killed). The test was conducted in a randomized block design with a three replicates and the results were summarized in the following Table 2 is an average value of the replicates.

Kentucky bluegrass = experiment: as above; type: in vivo; conditions: in vivo
Source text: as §3

Perennial ryegrass = experiment: as above; type: in vivo; conditions: in vivo
Source text: as §3

[1] = test system: crops such as corn, rice, wheat, soybean and cotton; experiment: Upland pot test, crops as a group; type: in vivo; conditions: pre-emergence, 500 g/ha
Source text: as §1
After fourteen days and when the crops and the weeds reached their three-leaf stage, the other set of a crop pot and a weed pot were prepared by the same method as described above. Then, “test substance” was sprayed thereto. In this case, spray treatment to the plants after they have grown for two weeks corresponded to post-emergence treatment while spray treatment to the seeds right after the sowing corresponded to pre-emergence treatment. […] Two weeks after the spray of the test substance, efficacy and phytotoxic effect to the crops and the weeds were visually measured based on a 0 to 10 scale (0: no efficacy, 10: completely killed).

[2] = test system: all types of the turfgrasses; experiment: Turfgrass safety test, all turfgrasses as a group; type: in vivo
Source text: as §3

[3] = post-emergence foliar spray at three leaf stage, 31.2 g/ha
[4] = post-emergence foliar spray at three leaf stage, 62.5 g/ha
[5] = post-emergence foliar spray at three leaf stage, 125 g/ha
[6] = post-emergence foliar spray at three leaf stage, 250 g/ha
[7] = post-emergence foliar spray at three leaf stage, 500 g/ha
[8] = pre-emergence soil treatment, 31.2 g/ha
[9] = pre-emergence soil treatment, 62.5 g/ha
[10] = pre-emergence soil treatment, 125 g/ha
[11] = pre-emergence soil treatment, 250 g/ha
[12] = pre-emergence soil treatment, 500 g/ha

Cc1ccsc1C1=NOC(C)(COCc2c(F)cccc2F)C1 (stereo not drawn) [test substance, 5-(2,6-difluorobenzyl)oxymethyl-5-methyl-3-(4-methylthiophen-5-yl)-1,2-isoxazoline]
Visual measurement: Crops, Soybean (Soybean; [3]): 0
Visual measurement: Crops, Soybean (Soybean; [4]): 0
Visual measurement: Crops, Soybean (Soybean; [5]): 0
Visual measurement: Crops, Soybean (Soybean; [6]): 2
Visual measurement: Crops, Soybean (Soybean; [7]): 6
Safety to soybean (in words) (Soybean; post-emergence treatment): not safe
Visual measurement: Crops, Soybean (Soybean; [8]): 0
Visual measurement: Crops, Soybean (Soybean; [9]): 0
Visual measurement: Crops, Soybean (Soybean; [10]): 0
Visual measurement: Crops, Soybean (Soybean; [11]): 0
Visual measurement: Crops, Soybean (Soybean; [12]): 0
Visual measurement: Crops, Cotton (Cotton; [3]): 0
Visual measurement: Crops, Cotton (Cotton; [4]): 0
Visual measurement: Crops, Cotton (Cotton; [5]): 0
Visual measurement: Crops, Cotton (Cotton; [6]): 0
Visual measurement: Crops, Cotton (Cotton; [7]): 0
Safety to cotton (in words) (Cotton; post-emergence treatment): safe
Visual measurement: Crops, Cotton (Cotton; [8]): 0
Visual measurement: Crops, Cotton (Cotton; [9]): 0
Visual measurement: Crops, Cotton (Cotton; [10]): 0
Visual measurement: Crops, Cotton (Cotton; [11]): 0
Visual measurement: Crops, Cotton (Cotton; [12]): 0
Visual measurement: Gramineous weed, Barnyardgrass (Barnyardgrass; [3]): 0
Visual measurement: Gramineous weed, Barnyardgrass (Barnyardgrass; [4]): 2
Visual measurement: Gramineous weed, Barnyardgrass (Barnyardgrass; [5]): 3
Visual measurement: Gramineous weed, Barnyardgrass (Barnyardgrass; [6]): 7
Visual measurement: Gramineous weed, Barnyardgrass (Barnyardgrass; [7]): 9
Visual measurement: Gramineous weed, Barnyardgrass (Barnyardgrass; [8]): 2
Visual measurement: Gramineous weed, Barnyardgrass (Barnyardgrass; [9]): 4
Visual measurement: Gramineous weed, Barnyardgrass (Barnyardgrass; [10]): 10
Visual measurement: Gramineous weed, Barnyardgrass (Barnyardgrass; [11]): 10
Visual measurement: Gramineous weed, Barnyardgrass (Barnyardgrass; [12]): 10
Visual measurement: Broadleaf weed, Velvetleaf (Velvetleaf; [3]): 0
Visual measurement: Broadleaf weed, Velvetleaf (Velvetleaf; [4]): 0
Visual measurement: Broadleaf weed, Velvetleaf (Velvetleaf; [5]): 1
Visual measurement: Broadleaf weed, Velvetleaf (Velvetleaf; [6]): 3
Visual measurement: Broadleaf weed, Velvetleaf (Velvetleaf; [7]): 6
Visual measurement: Broadleaf weed, Velvetleaf (Velvetleaf; [8]): 0
Visual measurement: Broadleaf weed, Velvetleaf (Velvetleaf; [9]): 0
Visual measurement: Broadleaf weed, Velvetleaf (Velvetleaf; [10]): 0
Visual measurement: Broadleaf weed, Velvetleaf (Velvetleaf; [11]): 0
Visual measurement: Broadleaf weed, Velvetleaf (Velvetleaf; [12]): 0
Visual measurement: Broadleaf weed, Indian joint-vetch (Indian joint-vetch; [3]): 0
Visual measurement: Broadleaf weed, Indian joint-vetch (Indian joint-vetch; [4]): 1
Visual measurement: Broadleaf weed, Indian joint-vetch (Indian joint-vetch; [5]): 2
Visual measurement: Broadleaf weed, Indian joint-vetch (Indian joint-vetch; [6]): 3
Visual measurement: Broadleaf weed, Indian joint-vetch (Indian joint-vetch; [7]): 4
Visual measurement: Broadleaf weed, Indian joint-vetch (Indian joint-vetch; [8]): 0
Visual measurement: Broadleaf weed, Indian joint-vetch (Indian joint-vetch; [9]): 0
Visual measurement: Broadleaf weed, Indian joint-vetch (Indian joint-vetch; [10]): 0
Visual measurement: Broadleaf weed, Indian joint-vetch (Indian joint-vetch; [11]): 0
Visual measurement: Broadleaf weed, Indian joint-vetch (Indian joint-vetch; [12]): 0
Visual measurement: Broadleaf weed, Morningglory (Morningglory; [3]): 0
Visual measurement: Broadleaf weed, Morningglory (Morningglory; [4]): 0
Visual measurement: Broadleaf weed, Morningglory (Morningglory; [5]): 0
Visual measurement: Broadleaf weed, Morningglory (Morningglory; [6]): 1
Visual measurement: Broadleaf weed, Morningglory (Morningglory; [7]): 3
Visual measurement: Broadleaf weed, Morningglory (Morningglory; [8]): 0
Visual measurement: Broadleaf weed, Morningglory (Morningglory; [9]): 0
Visual measurement: Broadleaf weed, Morningglory (Morningglory; [10]): 1
Visual measurement: Broadleaf weed, Morningglory (Morningglory; [11]): 2
Visual measurement: Broadleaf weed, Morningglory (Morningglory; [12]): 2
Phytotoxic effect, visual assessment: Bentgrass Week 2 (Bentgrass): 2.3
Phytotoxic effect, visual assessment: Bentgrass Week 4 (Bentgrass): 3.0
Phytotoxic effect, visual assessment: Kentucky bluegrass Week 6 (Kentucky bluegrass; Kentucky bluegrass, 6 weeks): 0.0
Phytotoxic effect, visual assessment: Kentucky bluegrass Week 6 (Kentucky bluegrass): 1.0
Safety to Kentucky bluegrass (in words) (Kentucky bluegrass): safe
Phytotoxic effect, visual assessment: Perennial ryegrass Week 2 (Perennial ryegrass): 3.0
Phytotoxic effect, visual assessment: Perennial ryegrass Week 4 (Perennial ryegrass): 2.7
Phytotoxic effect, visual assessment: Perennial ryegrass Week 6 (Perennial ryegrass): 2.0
Safety to perennial ryegrass (in words) (Perennial ryegrass): safe
Phytotoxic effect to crops (in words) [1]: completely safe without any phytotoxic effect
Phytotoxicity to turfgrasses (in words) ([2]; 1~2 kg/ha, compared to Dithiopyr at 0.48 kg/ha): negligible phytotoxicity
Safety to all types of the turfgrasses (in words) ([2]; 4 kg/ha): excellent safety
Phytotoxic effect to turfgrasses (in words) ([2]; dosage the same or less than 0.5 kg/ha): almost no phytotoxic effect
